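Assay format: 96-well plates, 48-hour exposure. GI50 marks 50% less growth.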 Calls of active or inactive are those of the source. Cut-off read from the data, not from the text of the source: active = GI50 up to about 1.1 µM and inactive = higher.
Tests used:
Assay in all cases: NCI tumour cell line growth inhibition, 48 h
T47D = tested on: T47D
UO-31 = tested on: UO-31
Hs-578T = tested on: Hs-578T
MDA-MB-435 = tested on: MDA-MB-435
HT-29 = tested on: HT-29
IGROV-1 = tested on: IGROV-1
EKVX = tested on: EKVX
SNB-19 = tested on: SNB-19
NCI-H522 = tested on: NCI-H522
BT-549 = tested on: BT-549
SF-295 = tested on: SF-295
NCI-H23 = tested on: NCI-H23
NCI/ADR-RES = tested on: NCI/ADR-RES
HCT-15 = tested on: HCT-15
TK-10 = tested on: TK-10
OVCAR-3 = tested on: OVCAR-3
HCT-116 = tested on: HCT-116
PC-3 = tested on: PC-3
SK-MEL-2 = tested on: SK-MEL-2

Row | Structure (SMILES) | GI50 (T47D) | GI50 (UO-31) | GI50 (Hs-578T) | GI50 (MDA-MB-435) | GI50 (HT-29) | GI50 (IGROV-1) | GI50 (EKVX) | GI50 (SNB-19) | GI50 (NCI-H522) | GI50 (BT-549) | GI50 (SF-295) | GI50 (NCI-H23) | GI50 (NCI/ADR-RES) | GI50 (HCT-15) [µM] | GI50 (TK-10) | GI50 (OVCAR-3) | GI50 (HCT-116) | GI50 (PC-3) | GI50 (SK-MEL-2)
1 | O=C1C=C(Nc2nc(O)cc(C(=O)O)n2)c2ccccc2C1=O | > 100 µM (inactive) | > 100 µM (inactive) | > 100 µM (inactive) | 37.8 µM (inactive) | > 100 µM (inactive) | > 100 µM (inactive) | > 100 µM (inactive) | > 100 µM (inactive) | > 100 µM (inactive) | > 100 µM (inactive) | > 100 µM (inactive) | > 100 µM (inactive) | > 100 µM (inactive) | > 100 | > 100 µM (inactive) | > 100 µM (inactive) | > 100 µM (inactive) | > 100 µM (inactive) | > 100 µM (inactive)
2 | O=C(/C=C/c1ccccc1)c1cc(Br)ccc1O | 8.45 µM (inactive) | 10.9 µM (inactive) | 21.2 µM (inactive) | 15.6 µM (inactive) | 16.6 µM (inactive) | 11.5 µM (inactive) | 13.8 µM (inactive) | 17.1 µM (inactive) | 12.5 µM (inactive) | 16 µM (inactive) | 16.9 µM (inactive) | 16 µM (inactive) | 17.5 µM (inactive) | 14.1 | 17.6 µM (inactive) | 18 µM (inactive) | 16.3 µM (inactive) | 17.1 µM (inactive) | 21.4 µM (inactive)
3 | CCOC(=O)CCc1cccc2c1oc1c(CCNC(=O)OCC3c4ccccc4-c4ccccc43)cccc12 | 22.8 µM (inactive) | 34.9 µM (inactive) | 4.17 µM (inactive) | > 100 µM (inactive) |  | 21.3 µM (inactive) | > 100 µM (inactive) | 19.9 µM (inactive) | 37.9 µM (inactive) | 22.5 µM (inactive) | 19.6 µM (inactive) | 25.6 µM (inactive) | 58.6 µM (inactive) | > 100 | 40.4 µM (inactive) | 49 µM (inactive) | 79.3 µM (inactive) | 35.2 µM (inactive) | 76.6 µM (inactive)
4 | O=c1nc(Oc2c(F)c(F)c(F)c(F)c2F)ccn1C1OC(CO)C(O)C1O (stereo unspecified) | > 100 µM (inactive) | > 100 µM (inactive) | > 100 µM (inactive) | > 100 µM (inactive) | > 100 µM (inactive) | > 100 µM (inactive) | > 100 µM (inactive) | > 100 µM (inactive) | 54.5 µM (inactive) | > 100 µM (inactive) | > 100 µM (inactive) | > 100 µM (inactive) | > 100 µM (inactive) | > 100 | > 100 µM (inactive) | 53.8 µM (inactive) | > 100 µM (inactive) | > 100 µM (inactive) | > 100 µM (inactive)
5 | O=[N+]([O-])c1cc2ccc(N(CCO)CCO)nc2nc1N(CCO)CCO | > 100 µM (inactive) | > 100 µM (inactive) | > 100 µM (inactive) | > 100 µM (inactive) | > 100 µM (inactive) | > 100 µM (inactive) | > 100 µM (inactive) | > 100 µM (inactive) | > 100 µM (inactive) | > 100 µM (inactive) | > 100 µM (inactive) | > 100 µM (inactive) | > 100 µM (inactive) | > 100 | > 100 µM (inactive) | > 100 µM (inactive) | > 100 µM (inactive) | > 100 µM (inactive) | > 100 µM (inactive)
6 | Cc1[nH]nc(C(=O)N/N=C/c2cccs2)c1/N=N\N(C)C | 9.12 µM (inactive) | 2.49 µM (inactive) | 34.5 µM (inactive) | 23.9 µM (inactive) | 3.31 µM (inactive) | 11.1 µM (inactive) | 39.4 µM (inactive) | 8.38 µM (inactive) | 11.2 µM (inactive) | 11.9 µM (inactive) | 15.2 µM (inactive) | 12.6 µM (inactive) | 21.1 µM (inactive) | 13.7 | 23.5 µM (inactive) | 22.4 µM (inactive) | 11 µM (inactive) | 20.1 µM (inactive) | 35.2 µM (inactive)
7 | CC(C)=CCC[C@@H](C)c1c2nc3ccccc3sc-2c(C)c(=O)c1O | 3.45 µM (inactive) | 3.55 µM (inactive) | 9.66 µM (inactive) | 10.6 µM (inactive) | 2.79 µM (inactive) | 3.44 µM (inactive) | 7.62 µM (inactive) | 38.5 µM (inactive) | 1.82 µM (inactive) | 31 µM (inactive) | 3.78 µM (inactive) | 5.93 µM (inactive) | 2.05 µM (inactive) | 2.32 | 12.8 µM (inactive) | 9.35 µM (inactive) | 3.37 µM (inactive) | 8.34 µM (inactive) | 9.71 µM (inactive)
8 | Clc1ccc(Cl)c(NNc2cc(Cl)ccc2Cl)c1 | 4.28 µM (inactive) |  | > 10 µM (inactive) | 8.09 µM (inactive) | > 10 µM (inactive) | 4.67 µM (inactive) | 4.45 µM (inactive) | 9.79 µM (inactive) | 3.68 µM (inactive) | 5.19 µM (inactive) | > 10 µM (inactive) | 2.82 µM (inactive) | 2.92 µM (inactive) | 3.61 | 4.76 µM (inactive) | 3.08 µM (inactive) | 3.84 µM (inactive) | 3.66 µM (inactive) | 2.83 µM (inactive)
9 | O=C1c2cc([N+](=O)[O-])cnc2S(=O)(=O)N1c1ccc(Oc2ccccc2)cc1 | > 100 µM (inactive) | > 100 µM (inactive) | > 100 µM (inactive) | > 100 µM (inactive) |  | > 100 µM (inactive) | > 100 µM (inactive) | > 100 µM (inactive) | > 100 µM (inactive) | > 100 µM (inactive) | > 100 µM (inactive) | > 100 µM (inactive) | > 100 µM (inactive) | > 100 | > 100 µM (inactive) | > 100 µM (inactive) | > 100 µM (inactive) | > 100 µM (inactive) | > 100 µM (inactive)
10 | CCCCOP(=O)(OCCCC)/C(C#N)=C/c1ccc(C)o1 | 51.5 µM (inactive) |  | 57.4 µM (inactive) | 32.6 µM (inactive) | 45.6 µM (inactive) | > 100 µM (inactive) | 40.6 µM (inactive) | > 100 µM (inactive) | 58.9 µM (inactive) | 19.1 µM (inactive) | 43.7 µM (inactive) | 30.4 µM (inactive) | 15.5 µM (inactive) | 38.7 | > 100 µM (inactive) | 14.5 µM (inactive) | 36.9 µM (inactive) | 23.9 µM (inactive) | 31 µM (inactive)
11 | CCC1=CC2Cc3nc4cc(Cl)ccc4c(N)c3C(C1)C2 (stereo unspecified) | 2.52 µM (inactive) | 4.92 µM (inactive) | 5.08 µM (inactive) | 2.94 µM (inactive) | 3.02 µM (inactive) | 2.72 µM (inactive) | 3.18 µM (inactive) | 9.12 µM (inactive) | 7.5 µM (inactive) | 15.5 µM (inactive) | 4.45 µM (inactive) | 5.52 µM (inactive) | 8.3 µM (inactive) | 7.21 | 4.38 µM (inactive) | 7.29 µM (inactive) | 2.54 µM (inactive) | 4.47 µM (inactive) | 5.45 µM (inactive)
12 | COc1ccc(C(=O)N(C(=S)OCCOc2ccccc2)c2ccccc2)cc1 | 19.9 µM (inactive) | 0.0457 µM (active) | 65.2 µM (inactive) | 31.7 µM (inactive) | 40.4 µM (inactive) | > 100 µM (inactive) | 31.6 µM (inactive) | 83.8 µM (inactive) | 23.7 µM (inactive) | 49.9 µM (inactive) | 29.2 µM (inactive) | 32.4 µM (inactive) | 37.2 µM (inactive) | 44.2 | 61 µM (inactive) | 38 µM (inactive) | 29.2 µM (inactive) | 35.4 µM (inactive) | 22.9 µM (inactive)
13 | C(=C\c1ccccc1)/C=N/c1ccc2c(c1)Cc1ccccc1-2 | 76.7 µM (inactive) | > 100 µM (inactive) | 50.8 µM (inactive) | 58.1 µM (inactive) | > 100 µM (inactive) | 61.5 µM (inactive) | 49.1 µM (inactive) | 61.4 µM (inactive) | 36.8 µM (inactive) | 60.4 µM (inactive) | > 100 µM (inactive) | 36.1 µM (inactive) | 51.3 µM (inactive) | > 100 | 60.8 µM (inactive) | 46 µM (inactive) | 35.9 µM (inactive) | 69 µM (inactive) | 57.1 µM (inactive)
14 | S=c1[nH]c(=S)c2cc(Sc3ccc4[nH]c(=S)[nH]c(=S)c4c3)ccc2[nH]1 | 50.5 µM (inactive) | 26.9 µM (inactive) | 22 µM (inactive) | 53 µM (inactive) | 41 µM (inactive) | 30 µM (inactive) | 42.2 µM (inactive) | 30.4 µM (inactive) | 34.8 µM (inactive) | 31.2 µM (inactive) | 22 µM (inactive) | 28 µM (inactive) | > 100 µM (inactive) | 39.2 | 25.1 µM (inactive) | 36.1 µM (inactive) | 48.1 µM (inactive) | 52.5 µM (inactive) | 45.1 µM (inactive)
15 | O=C(O)C1=C/C(=C(/c2ccccc2)c2cc(C(=O)O)c(O)c3ccccc23)c2ccccc2C1=O | > 100 µM (inactive) | > 100 µM (inactive) | > 100 µM (inactive) | > 100 µM (inactive) | > 100 µM (inactive) | > 100 µM (inactive) | > 100 µM (inactive) | > 100 µM (inactive) | > 100 µM (inactive) | > 100 µM (inactive) | > 100 µM (inactive) | > 100 µM (inactive) | > 100 µM (inactive) | > 100 | > 100 µM (inactive) | > 100 µM (inactive) | > 100 µM (inactive) | > 100 µM (inactive) | > 100 µM (inactive)
